The text below walks through data of patent US8460904B2, “Method of producing reduced coenzyme Q10” (Zhejiang Zhongning Business Co., Ltd., priority 2008, dated 2013).

Structures are written as SMILES.

A short description of series [1]: Stability / shelf life of the obtained reduced coenzyme Q10. The class given is physicochemical.
Series [2] can be described thus: Water-solubility after phosphorylation. The format is physicochemical. Conditions: usable on injection.

Regarding `COc1c(O)c(C)c(C/C=C(\C)CC/C=C(\C)CC/C=C(\C)CC/C=C(\C)CC/C=C(\C)CC/C=C(\C)CC/C=C(\C)CC/C=C(\C)CC/C=C(\C)CCC=C(C)C)c(O)c1OC` [reduced coenzyme Q10], the shelf life result in series [1] (below 50° C.) was “over 2 years”. The “stability in phosphoric acid solution” value in series [1] (phosphoric acid solution of pH6.0-8.2) is reported as “remains its qualities”. Further, the water-solubility entry in series [2] is on record as “completely water soluble”.
